Data published in the COVID Moonshot data (paper PMC11187573), “Identification of SARS-CoV-2 Mpro inhibitors through deep reinforcement learning for de novo drug design and computational chemistry approaches” (RSC Medicinal Chemistry, 2024).
pIC50: −log10 of the molar value.

Assays:
[1] = target: SARS-CoV-2 Main Protease (SARS-CoV-2) (UniProt P0DTD1)
[2] = target: SARS-CoV-2 Main Protease (SARS-CoV-2) (UniProt P0DTD1); remark: listed apart in the source

SMILES	inhibition ([1]; 20.0 µM) [%]	inhibition ([1]; 50.0 µM) [%]	inhibition ([2]; 50.0 µM) [%]	relative solubility at 20 uM	relative solubility at 100 uM	inhibition ([2]; 20.0 µM) [%]	pIC50 [2]	pIC50 [1]
O=C1CC[C@@H](C(=O)Nc2cccc(Cl)c2)CN1 (stereo in doubt)	-24	-3.68	-12	1	1			
O=C(Nc1cccc(-c2cc[nH]n2)c1)C(O)c1cccnc1 (centres undefined)		10.4	0	1	1	0		
Cc1ccnc(C)c1NC(=O)C(C)c1ccc(F)c(F)c1 (centres undefined)	-0.411	-2.87	0	1	1			
Cc1ccc(NC2CCN(c3ccc(S(N)(=O)=O)cc3)CC2)cc1	2.67	5.62	40	0.92	0.84	28.4		
O=C(Nc1cnccc1Cl)c1cccc(Cl)c1	-2.3	3.23	10.5	1	1	0		
Cc1ccncc1CC(=O)Nc1cccc(Cl)c1	42.2	67.4	88.6	1	1		4.58	
O=C(NCc1cccnc1)Nc1cccc(OCC(F)F)n1	3.33	8.28	4.42	1	1	0		
CC(=O)Nc1ccc(NCC(=O)Nc2cnccc2C)cc1	-2.21	-24.3	0	0.96	0.9			
Cc1ncncc1NC(=O)Nc1ccccc1	-2.06	-0.628	20.1	0.99	0.99	6.04		
O=C(c1cc(=O)[nH]c2cc(F)ccc12)N1CCN(S(=O)(=O)c2ccccc2)CC1	12.6	30.7	0	0.98	0.99			
O=C(Cn1nnc2ccccc21)NCc1ccc(Oc2cccnc2)c(F)c1	-21.1	-19.3		0.99	0.99	0		
O=C(CCl)Nc1cccc(N2CCCC2=O)c1	27.1	51.4		1	1			
N#Cc1cccc(NC(=O)Cc2c[nH]c3ncccc23)c1	2.74	2.91		1	0.95	0		
CC1(C)CCCN1S(=O)(=O)c1ccc2c(c1)C(=O)C(=O)N2	-5.91	-10.7	0	0.94	0.89			
CN1CCN(C(=O)Cc2c[nH]c3ncccc23)CC1C(=O)NCCc1c[nH]c2ccc(F)cc12 (centres undefined)	-9.55	-21.5	-15	0.98	0.98			
COc1cc(NC(=O)C(=O)Nc2cc(OC)c(OC)c(OC)c2)cc(OC)c1OC	-9.4	4.05		0.99	0.92	0.456		
O=C(c1cc2sccc2s1)N1CCOC(CN2CCOCC2)C1 (centres undefined)	4.6	7.85	2.34	1	0.99			
NC(=O)C1CCN(c2nnc(C3CCC(=O)N3)n2CCc2cc(F)cc(F)c2)CC1 (centres undefined)	1.27	3.83	0	1	1			
COc1ncccc1N(C)C(=O)C1CCOc2ccc(Cl)cc21 (centres undefined)	-2.61	2.54	0	1	0.98			
CO[C@@H](C)C(=O)Nc1cnccc1C (stereo in doubt)	1.23	0.255	6.67	1	1.01			
CCOC(=O)[C@@H](CCc1ccccc1)N[C@H](C)C(=O)Nc1cccc(CN2CCCC2)c1 (stereo in doubt)	-3.55	1.33	6.6	0.99	0.97			
O=C(CCl)N1CCN(Cc2ccsc2)CC1	98.8	99.4		1	0.99			

SMILES	inhibition ([1]; 20.0 µM) [%]	inhibition ([1]; 50.0 µM) [%]	inhibition ([2]; 50.0 µM) [%]	relative solubility at 20 uM	relative solubility at 100 uM	inhibition ([2]; 20.0 µM) [%]	pIC50 [2]	pIC50 [1]
CNc1ccc(N(Cc2ccsc2)C(=O)Cn2nnc3ccccc32)cc1	57.1	82.6		0.99	0.77			
O=C(CCl)N1CCN(Cc2cccs2)CC1	94.5	99		1	1			
Cc1ccncc1NC(=O)Cc1cc(Cl)cc(OC2CC(=O)N2)c1 (centres undefined)				0.99	1			
C=CC(=O)N1CC(NCC2=CNC3C=CC(C#N)=CC23)C1 (centres undefined)				1	0.95			
O=C(/C=C/C=C/c1ccc2c(c1)OCO2)N1CCCCC1				1	0.97	0		
N#Cc1cccc(C2CN(C(=O)CCl)Cc3ccccc32)c1 (centres undefined)	98.8	95.3		1	0.99			
CCn1c(CSc2nc(C)c(C)n2CC2CCCO2)nc2cc(S(=O)(=O)N(C)C)ccc21 (centres undefined)	-23.6	-3.59		0.85	0.84			
COc1ccc(Cl)cc1N1CCN(Cc2cc(=O)[nH]c3ccccc23)C1=O	-1.82	4.69	0					
CC(=O)N1CCN(CC(=O)Nc2cncc3ccccc23)CC1			42.4				4.14	4.14
COc1ccc(-n2cc(CN3CCN(C(=O)CCl)CC3)nn2)cc1	10.9	24.9	24.1					
COc1cc(OC)cc(Oc2ccc(CNC(=O)Cn3nnc4ccccc43)cc2)c1	4.58	17.3	0					
O=C(CCl)N1CCN(S(=O)(=O)c2ccc(Cc3cccc4ccccc34)cc2)CC1	20.6	29.9	89				4.82	
CC(NC(=O)CCl)c1cc(F)cc(Cl)c1 (centres undefined)	40.6	74.5	100				4.68	
COC(=O)c1ccc(-c2cc(Cl)cc(CC(=O)Nc3cnccc3C)c2)c(OC)c1							4.92	4.90
COC(=O)c1cc(Br)cc2c1NC(=O)C2=O	-5.73	-5.38	61.7				4.37	
O=C(Cc1cc(Cl)cc2c1OCC2)Nc1cncc2ccccc12			78.3				6.31	5.84
O=C1C(=O)N(CCCOc2ccc(Cl)cc2)c2ccccc21	-0.218	3.47	7.23					
C=CC(=O)NCC(=O)N(Cc1ccccc1)C[C@H](O)c1ccccc1 (stereo in doubt)	-0.281	0.986	0					
C=CC(=O)N(c1ccc(C(C)OC)cc1)C(C(=O)Nc1cccc(CC)c1)c1cccnc1 (centres undefined)	36.6	63.7				4.44		
O=[N+]([O-])c1cnc(Sc2nnc(-c3ccco3)n2-c2ccc(OCc3ccccc3)cc2)s1	31.8	94.4					6.18	
Cc1nnc(NC(=O)[C@@H]2COc3ccc(Cl)cc32)n1C1CC1 (stereo in doubt)				1	1			
CNCCN(C)C(=O)C(=O)N1Cc2ccccc2C(c2ccccc2)C1 (centres undefined)	-1.83	-2.83	0					

SMILES	inhibition ([1]; 20.0 µM) [%]	inhibition ([1]; 50.0 µM) [%]	inhibition ([2]; 50.0 µM) [%]	relative solubility at 20 uM	relative solubility at 100 uM	inhibition ([2]; 20.0 µM) [%]	pIC50 [2]	pIC50 [1]
Cc1cc(S(=O)(=O)c2c([N+](=O)[O-])cc(C(F)(F)F)cc2[N+](=O)[O-])c(Cl)cc1Cl		9.61	34.8					
COc1ccccc1OC1CCCN(C(=O)c2c(C)c(=O)[nH]c3ccccc23)C1 (centres undefined)	-2.54	-1.13	0					
O=C(Nc1cccnc1)Nc1cc(O)cc(Cl)c1	4.43	21.2	19.4					
C=CC(=O)N(C1CC(C)OC1=O)C(C(=O)NC(C)(C)C)c1cccnc1 (centres undefined)	-2.18	1.34	0					
C=CC(=O)N(C(CO)CC#CC)C(C(=O)NC(C)(C)C)c1cccnc1 (centres undefined)	-4.06	-4.3	0					
Cn1cc(NC(=O)Nc2ccccn2)c2ccccc2c1=O	-2.17	-0.727	0					
Cc1cnc2c(-c3ccc4[nH]ncc4c3)c(-c3ccc(F)cc3)nn2c1	-1.68	-1	34.7					
CCOC(=O)c1ccc(NC(=O)CC2SC(=O)N(c3ccccc3)C2=O)cc1 (centres undefined)	79	80.7					6.20	
COc1cc(Cl)cc(CC(=O)Nc2cnccc2C)c1	24.6	48.3					4.36	
C=CC(=O)N(C(C)COc1cccc(F)c1)C(C(=O)NC(C)(C)C)c1cccnc1 (centres undefined)	-1.52	-5.54	0					
O=C(Nc1cccc(C(F)(F)F)c1)Nc1ccccc1Sc1ncc([N+](=O)[O-])s1	55.9	76.3					6.66	
O=S(=O)(Cc1ccccc1F)c1oc(-c2ccc(F)cc2)nc1S(=O)(=O)c1ccccc1	49	95.9					7.00	
Cc1ccncc1NC(=O)Cc1cccc(Cl)c1				1	1			
N#Cc1ccc(CN2CCC(C3CCNC3)CC2)cc1 (centres undefined)	97.1	98.9					5.87	
O=C(CCl)N1CCN(Cc2cc(O)cc(Cl)c2)CC1	75	89.5	98.9			92.7	5.80	
Cc1cn2c(-c3cccnc3)c(-c3ccc(F)cc3)nc2s1	-2.02	1.34	31.5					
COC(=O)c1c(NCCCc2ccccc2)c2cc(F)ccc2[nH]c1=O	20.5	7.56					4.16	
O=C(Nc1cnccc1CO)C1CCOc2ccc(Cl)cc21 (centres undefined)				0.94	0.93			
COc1cc(Cl)cc(OC(=O)Nc2cccnc2)c1				1	1			
CN1CCN(C(=O)CNc2c(S(N)(=O)=O)ccc3ccccc23)CC1	-0.961	0.321	0					
CC(C)C[C@@H]1CN(C(=O)CCl)CCN1Cc1cccc(Cl)c1 (stereo in doubt)	99.2	99.5	100				6.29	
